Holding throughout (assay type): in vivo
In test [1] the test system is foxtail (Setaria spp.). Nature of the test: Preemergence herbicidal activity, foxtail. The note with it: Setaria, pre-emergence, 336 h; Pre, 2 lb/A. The essentials:
(§1)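 Spray application (acetone, water dilution; 50 gal per acre carrier; dose as lb/A) onto seeded soil flats. Preemergence flats sprayed on the day of planting; postemergence flats after two weeks of germination. Kill % evaluated about two weeks afterward.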

Test [2] deals with tomato (Lycopersicon esculentum). As to the kind of experiment: Postemergence herbicidal activity, tomato. The note with it: Solanum lycopersicum, post-emergence, 336 h, Post, 2 lb/A. The method in brief: as §1
Test [3] has the same test system. As to the kind of experiment: Preemergence herbicidal activity, tomato. The note with it: Solanum lycopersicum, pre-emergence, 336 h; Pre, 2 lb/A. The method in brief:
as §1

The subject of test [4] is velvetleaf (Abutilon theophrasti). As to the kind of experiment: Preemergence herbicidal activity, velvetleaf. The note with it: Abutilon theophrasti, pre-emergence, 336 h; Pre, 2 lb/A. The essentials: as §1
Test [5] relates to downybrome (Bromus tectorum). Nature of the test: Preemergence herbicidal activity, downybrome. Conditions: Bromus tectorum, pre-emergence, 336 h, Pre, 2 lb/A. The essentials:
as §1

Test [6] has as its system cocklebur (Xanthium pensylvanicum). Nature of the test: Preemergence herbicidal activity, cocklebur. Conditions: Xanthium strumarium, pre-emergence, 336 h, 2 lb/A. The method in brief:
as §1

The subject of test [7] is marigold (Tagetes spp.). Nature of the test: Preemergence herbicidal activity, marigold. The note with it: pre-emergence, 336 h, 2 lb/A. The essentials:
as §1

Test [8] relates to barnyardgrass (Echinochloa crusgalli). Nature of the test: Preemergence herbicidal activity, barnyardgrass. The note with it: Echinochloa crus-galli, pre-emergence, 336 h; Pre, 2 lb/A. The essentials: (§2)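 Seeds were sown in soil flats and sprayed either immediately after planting (preemergence) or two weeks after germination (postemergence). The test compound was dissolved in acetone, diluted with water and applied at a carrier volume equivalent to 50 gallons per acre, dosed in pounds per acre (lb/A).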

Test [9] concerns morningglory (Ipomoca spp.). Nature of the test: Preemergence herbicidal activity, morningglory. Conditions: Ipomoea, pre-emergence, 336 h, 2 lb/A. The method in brief: as §1
Test [10] has as its system yellow nutsedge (Cyperus esculentus). Nature of the test: Postemergence herbicidal activity, yellow nutsedge. Conditions: Cyperus, post-emergence, 336 h, 2 lb/A. The method in brief: as §1
The subject of test [11] is foxtail (Setaria spp.). As to the kind of experiment: Postemergence herbicidal activity, foxtail. The note with it: Setaria, post-emergence, 336 h, Post, 2 lb/A. The essentials:
as §1

In test [12] the test system is velvetleaf (Abutilon theophrasti). As to the kind of experiment: Postemergence herbicidal activity, velvetleaf. The note with it: Abutilon theophrasti, post-emergence, 336 h, 2 lb/A. The essentials: as §2
Test [13] has as its system barnyardgrass (Echinochloa crusgalli). As to the kind of experiment: Postemergence herbicidal activity, barnyardgrass. The note with it: Echinochloa crus-galli, post-emergence, 336 h; Post, 2 lb/A. The essentials: as §2
For test [14], the system named is cocklebur (Xanthium pensylvanicum). As to the kind of experiment: Postemergence herbicidal activity, cocklebur. The note with it: Xanthium strumarium, post-emergence, 336 h, 2 lb/A. The essentials:
as §1

Test [15] deals with wild oats (Avena fatua). As to the kind of experiment: Postemergence herbicidal activity, wild oats. The note with it: Avena fatua, post-emergence, 336 h, Post, 2 lb/A; read-out: % control, Wild oat. The essentials: as §1
Test [16] concerns marigold (Tagetes spp.). Nature of the test: Postemergence herbicidal activity, marigold. The note with it: post-emergence, 336 h, 2 lb/A. The method in brief: as §1
Test [17] concerns wild oats (Avena fatua). As to the kind of experiment: Preemergence herbicidal activity, wild oats. Conditions: Avena fatua, pre-emergence, 336 h, Pre, 2 lb/A; read-out: % control, Wild oat. The essentials:
as §1

Test [18] relates to yellow nutsedge (Cyperus esculentus). Nature of the test: Preemergence herbicidal activity, yellow nutsedge. The note with it: Cyperus, pre-emergence, 336 h, 2 lb/A. The essentials:
as §1

Test [19] concerns downybrome (Bromus tectorum). Nature of the test: Postemergence herbicidal activity, downybrome. The note with it: Bromus tectorum, post-emergence, 336 h, Post, 2 lb/A. The method in brief: as §1
Test [20] deals with morningglory (Ipomoca spp.). As to the kind of experiment: Postemergence herbicidal activity, morningglory. The note with it: Ipomoea, post-emergence, 336 h, 2 lb/A. The essentials: as §1

In the case of `CCCCCCCCOC(=O)C(C)Oc1ccc(Oc2ccc(C(F)(F)F)cc2Cl)cc1` (centres unmarked) [Example 26], the pest or weed control at 2241.7 g/ha in the test with foxtail (Setaria spp.) [1] was 0%; in test [2] it was 30%; in test [3], 0%; in [4], 0%; in [5] it was 0%; in [6] it was 0%. Further, the pest or weed control at 2241.7 g/ha with marigold (Tagetes spp.) [7] stood at 0%; in test [8], 50%; in test [9], 0%; in [10], 20%; with foxtail (Setaria spp.) [11] it was 100%; in test [12], 50%. The pest or weed control at 2241.7 g/ha in test [13] came out at 100%; in test [14], 60%; in the test with wild oats (Avena fatua) [15] it was 20%; in the test on marigold (Tagetes spp.) [16], 70%; in the test on wild oats (Avena fatua) [17] it was 50%; in [18], 0%. Moreover, the pest or weed control at 2241.7 g/ha in test [19] was 50%; in [20], 70%.
With `CCOC(=O)C(C)Oc1ccc(Oc2ccc(C(F)(F)F)cc2)cc1` (centres unmarked) [Example 27], the pest or weed control at 2241.7 g/ha is 100% in the test on foxtail (Setaria spp.) [1]; 60% in test [2]; 0% in test [3]; 0% in [4]; 99% in test [5]; 0% in test [6]. The pest or weed control at 2241.7 g/ha in the test with marigold (Tagetes spp.) [7] is 0%; in test [8] it was 100%; in test [9] it was 0%; in test [10] it was 0%; in the test with foxtail (Setaria spp.) [11], 100%; in [12], 40%. The pest or weed control at 2241.7 g/ha was 100% in test [13]; 70% in [14]; 100% with wild oats (Avena fatua) [15]; 100% in the test on marigold (Tagetes spp.) [16]; 99% in the test on wild oats (Avena fatua) [17]; 0% in test [18]. Further, the pest or weed control at 2241.7 g/ha in test [19] was found to be 100%; in test [20] it was 95%.
`CCOC(=O)C(Oc1ccc(Oc2ccc(C(F)(F)F)cc2Cl)cc1)C(C)C` (centres unmarked) [Example 28]: the pest or weed control at 2241.7 g/ha with foxtail (Setaria spp.) [1] was 90%; in test [2] it was 0%; in test [3] it was 0%; in test [4], 0%; in test [5], 30%; in test [6], 0%. In addition, the pest or weed control at 2241.7 g/ha with marigold (Tagetes spp.) [7] amounted to 0%; in [8], 95%; in test [9], 70%; in test [10], 0%; in the test on foxtail (Setaria spp.) [11], 99%; in test [12], 0%. Also, the pest or weed control at 2241.7 g/ha was 60% in [13]; 0% in test [14]; 60% in the test with wild oats (Avena fatua) [15]; 0% with marigold (Tagetes spp.) [16]; 0% with wild oats (Avena fatua) [17]; 0% in test [18]. Also, the figures for the pest or weed control at 2241.7 g/ha in [19] and in test [20] were 20% and 0%, respectively.
As to `CC(Oc1ccc(Oc2ccc(C(F)(F)F)cc2)cc1)C(=O)O` (centres unmarked) [Example 29], the pest or weed control at 2241.7 g/ha was 100% in the test on foxtail (Setaria spp.) [1]; 30% in test [2]; 0% in test [3]; 0% in test [4]; 99% in test [5]; 0% in test [6]. Moreover, the pest or weed control at 2241.7 g/ha in the test on marigold (Tagetes spp.) [7] was 0%; in test [8], 100%; in test [9], 0%; in test [10] it was 0%; with foxtail (Setaria spp.) [11], 100%; in test [12], 0%. Also, the pest or weed control at 2241.7 g/ha was 100% in test [13]; 0% in test [14]; 100% in the test on wild oats (Avena fatua) [15]; 30% in the test with marigold (Tagetes spp.) [16]; 95% with wild oats (Avena fatua) [17]; 0% in test [18]. In addition, the pest or weed control at 2241.7 g/ha in test [19] came out at 80%; in test [20], 0%.
For `CCOC(=O)C=CCOc1ccc(Oc2ccc(C(F)(F)F)cc2Cl)cc1` [Example 30], the pest or weed control at 2241.7 g/ha turned out to be 60% in the test on foxtail (Setaria spp.) [1]; 30% in test [2]; 0% in test [3]; 0% in [4]; 0% in test [5]; 0% in [6]. In addition, the pest or weed control at 2241.7 g/ha worked out at 0% in the test with marigold (Tagetes spp.) [7]; 60% in test [8]; 0% in [9]; 0% in test [10]; 100% with foxtail (Setaria spp.) [11]; 0% in test [12]. The pest or weed control at 2241.7 g/ha was determined as 0% in test [13]; 0% in [14]; 30% in the test on wild oats (Avena fatua) [15]; 0% in the test with marigold (Tagetes spp.) [16]; 0% in the test with wild oats (Avena fatua) [17]; 0% in test [18]. Further, the pest or weed control at 2241.7 g/ha in test [19] and in [20] was 0% in each case.
On to `CC(Oc1ccc(Oc2ccc(C(F)(F)F)cc2Cl)cc1)C(=O)OCCN(C)C` (centres unmarked) [Example 31], for which the pest or weed control at 2241.7 g/ha in the test on foxtail (Setaria spp.) [1] was 100%; in [2], 90%; in test [3], 0%; in test [4], 0%; in [5], 30%; in test [6] it was 0%. The pest or weed control at 2241.7 g/ha in the test with marigold (Tagetes spp.) [7] was 0%; in [8] it was 100%; in test [9], 70%; in test [10] it was 0%; with foxtail (Setaria spp.) [11], 100%; in [12] it was 80%. Besides, the pest or weed control at 2241.7 g/ha in test [13] came out at 100%; in [14], 60%; with wild oats (Avena fatua) [15], 99%; in the test with marigold (Tagetes spp.) [16], 40%; in the test with wild oats (Avena fatua) [17], 40%; in test [18] it was 0%. In addition, the values for the pest or weed control at 2241.7 g/ha in test [19] and in [20] were 100% and 80%, respectively.
With `CCCOC(=O)C(C)Oc1ccc(Oc2ccc(C(F)(F)F)cc2Cl)cc1` (centres unmarked) [Example 32], the pest or weed control at 2241.7 g/ha with foxtail (Setaria spp.) [1] is 100%; in test [2] it was 30%; in [3] it was 0%; in [4], 0%; in test [5], 80%; in [6] it was 0%. The pest or weed control at 2241.7 g/ha with marigold (Tagetes spp.) [7] was 0%; in [8], 100%; in test [9], 0%; in [10], 0%; in the test with foxtail (Setaria spp.) [11] it was 100%; in test [12] it was 30%. Also, the pest or weed control at 2241.7 g/ha in [13] is 100%; in test [14], 0%; with wild oats (Avena fatua) [15], 100%; in the test on marigold (Tagetes spp.) [16] it was 20%; in the test with wild oats (Avena fatua) [17], 80%; in [18], 0%. The pest or weed control at 2241.7 g/ha was 100% in test [19] and 0% in test [20].

The values are drawn from patent US4335249A, “Herbicidal diphenyl ethers, sulfides, sulfoxides and sulfones” (Rohm and Haas Company, priority 1976, dated 1982).
